Measurements reported in patent US4143032A, “Hexapeptides having analgesic activities” (American Home Products Corporation, priority 1977, dated 1979).
Non-standard residues stand in square brackets, D forms with d. Residues, ends and D or L forms follow the SMILES beside them.

Tests used:
[1] = administered intracerebroventricularly; cited from earlier work
[2] = tested on: guinea pig ileum; details: cited from earlier work
[3] = tested on: opiate receptor; details: brain homogenates; cited from earlier work
[4] = peripheral administration, for example intravenous; cited from earlier work
[5] = tested on: rats; details: injection in the brain ventricle in rats; fully reversible by naloxone; cited from earlier work
[6] = tested on: mouse vas deferens; details: cited from earlier work
[7] = tested on: rats; assay: rat-tail flick method of D'Amour and Smith (analgesic activity); type: in vivo; details: single dose
Protocol: In this procedure, a single intravenous dose of from 0.5 to 20 mg/kg., will produce analgesia in the rat. Preferably, a dose of from 1 to 10 mg/kg. is employed. The exact dose to be employed will vary depending on the particular compound employed and the degree of analgesia desired. The determination of the precise dose to produce the desired effect will be readily ascertained by those skilled in the art. With representative compound H-Arg-Tyr-D-Ala-Gly-Phe-D-Leu-NH2, the following results were obtained: […]

Row | Compound | activity [1] | ability to block electrically evoked contractions [2] | inhibition of stereospecific receptor binding of 3H-naloxone [3] | peripheral activity [4] | analgesia [5] | ability to block electrically evoked contractions [6] | No. Showing Analgesic/No. Tested ([7]; 1.0 mg/kg. i.v.) | No. Showing Analgesic/No. Tested ([7]; 2.5 mg/kg. i.v.) | No. Showing Analgesic/No. Tested ([7]; 5 mg/kg. i.v.)
1 | Tyr-D-Ala-Gly-Phe-D-Leu | activity |  |  |  |  |  |  |  | 
2 | H-Tyr-Gly-Gly-Phe-Met-OH [methionine-enkephalin] |  | block electrically evoked contractions | inhibit the stereospecific receptor binding | inactive peripherally | induce a profound analgesia | block electrically evoked contractions |  |  | 
3 | H-Tyr-Gly-Gly-Phe-Leu-OH [leucine-enkephalin] |  | block electrically evoked contractions | inhibit the stereospecific receptor binding | inactive peripherally | induce a profound analgesia | block electrically evoked contractions |  |  | 
4 | CC(=O)O.CC(=O)O.CC(C)C[C@@H](NC(=O)[C@H](Cc1ccccc1)NC(=O)CNC(=O)[C@@H](C)NC(=O)[C@H](Cc1ccc(O)cc1)NC(=O)[C@@H](N)CCCNC(=N)N)C(N)=O [H-Arg-Tyr-D-Ala-Gly-Phe-D-Leu-NH2, L-Arginyl-L-Tyrosyl-D-Alanyl-Glycyl-L-Phenylalanyl-D-Leucyl Amide Diacetate] (H-RY[dA]GF[dL]-NH2) |  |  |  |  |  |  | 2/6 | 2/6 | 6/6
